# In the supplement of paper PMC10307832:
# Tests used:
# Experiment in all cases: relative viability (nuclei count vs DMSO), 5 days (fraction); higher = more cells survive
# [1] = compound: CO[C@H]1C[C@@H]2CC[C@@H](C)[C@@](O)(O2)C(=O)C(=O)N2CCCC[C@H]2C(=O)O[C@H]([C@H](C)C[C@@H]2CC[C@@H](OCCO)[C@H](OC)C2)CC(=O)[C@H](C)/C=C(\C)[C@@H](O)[C@@H](OC)C(=O)[C@H](C)C[C@H](C)/C=C/C=C/C=C/1C [Everolimus] + O=C(CCCCCCC(=O)Nc1ccccc1)NO [Vorinostat] (partner 1 µM)
# Procedure, shortened: (§1)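 Nuclei were stained with Hoechst during a one-step fixation (final 0.05% Triton X-100, 1% formaldehyde, 1 ug/ml Hoechst) carried out 5 days after dosing, then counted on 4× images. The cells, lung cancer lines in 1536-well plates, had been dosed by pin tool the day after seeding with one drug alone or a fixed anchor-drug dose plus five library-drug doses (not always all listed) in √10 steps. Relative viability is the nuclei count in treated wells divided by that in vehicle wells, and each value is the median of duplicate plates.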
# [2] = compound: CO[C@H]1C[C@@H]2CC[C@@H](C)[C@@](O)(O2)C(=O)C(=O)N2CCCC[C@H]2C(=O)O[C@H]([C@H](C)C[C@@H]2CC[C@@H](OCCO)[C@H](OC)C2)CC(=O)[C@H](C)/C=C(\C)[C@@H](O)[C@@H](OC)C(=O)[C@H](C)C[C@H](C)/C=C/C=C/C=C/1C [Everolimus] + NC(=O)Nc1cc(-c2cccc(F)c2)sc1C(=O)N[C@H]1CCCNC1 [AZD7762] (partner 0.2 µM)
# Procedure, shortened: as §1
# [3] = compound: CO[C@H]1C[C@@H]2CC[C@@H](C)[C@@](O)(O2)C(=O)C(=O)N2CCCC[C@H]2C(=O)O[C@H]([C@H](C)C[C@@H]2CC[C@@H](OCCO)[C@H](OC)C2)CC(=O)[C@H](C)/C=C(\C)[C@@H](O)[C@@H](OC)C(=O)[C@H](C)C[C@H](C)/C=C/C=C/C=C/1C [Everolimus] + COc1cc2c(Oc3ccc(NC(=O)C4(C(=O)Nc5ccc(F)cc5)CC4)cc3F)ccnc2cc1OCCCN1CCOCC1 [Foretinib] (partner 0.25 µM)
# Procedure, shortened: as §1
# [4] = compound: CO[C@H]1C[C@@H]2CC[C@@H](C)[C@@](O)(O2)C(=O)C(=O)N2CCCC[C@H]2C(=O)O[C@H]([C@H](C)C[C@@H]2CC[C@@H](OCCO)[C@H](OC)C2)CC(=O)[C@H](C)/C=C(\C)[C@@H](O)[C@@H](OC)C(=O)[C@H](C)C[C@H](C)/C=C/C=C/C=C/1C [Everolimus] + CS(=O)(=O)N1CCN(Cc2cc3nc(-c4cccc5[nH]ncc45)nc(N4CCOCC4)c3s2)CC1 [Pictilisib] (partner 1 µM)
# Procedure, shortened: as §1
Cell Line,relative viability ([1]; first compound 0.01 µM),relative viability ([1]; first compound 0.03162 µM),relative viability ([1]; first compound 0.1 µM),relative viability ([1]; first compound 0.3162 µM),relative viability ([1]; first compound 1 µM),relative viability ([2]; first compound 0.01 µM),relative viability ([2]; first compound 0.03162 µM),relative viability ([2]; first compound 0.1 µM),relative viability ([2]; first compound 0.3162 µM),relative viability ([2]; first compound 1 µM),relative viability ([3]; first compound 0.01 µM),relative viability ([3]; first compound 0.03162 µM),relative viability ([3]; first compound 0.1 µM),relative viability ([3]; first compound 0.3162 µM),relative viability ([3]; first compound 1 µM),relative viability ([4]; first compound 0.01 µM),relative viability ([4]; first compound 0.03162 µM),relative viability ([4]; first compound 0.1 µM),relative viability ([4]; first compound 0.3162 µM),relative viability ([4]; first compound 1 µM)
ChaGo-K-1,0.678,0.688,0.62,0.662,0.726,0.799,0.917,0.743,0.769,0.866,0.903,0.85,0.884,0.761,0.805,0.653,0.382,0.634,0.494,0.666
NCI-H1755,0.616,0.599,0.61,0.568,0.602,0.379,0.39,0.382,0.344,0.345,0.791,0.751,0.653,0.822,0.632,0.334,0.381,0.292,0.354,0.329
NCI-H2087,0.321,0.5,0.443,0.46,0.532,1.25,1.51,1.2,1.36,1.35,0.704,0.662,0.739,0.875,0.713,0.502,0.595,0.48,0.722,0.591
LU99A,0.367,0.371,0.325,0.311,0.471,0.213,0.279,0.213,0.246,0.33,0.52,0.565,0.525,0.519,0.605,0.213,0.212,0.212,0.194,0.249
NCI-H1355,0.385,0.331,0.341,0.365,0.295,0.552,0.468,0.456,0.471,0.376,0.606,0.548,0.477,0.421,0.482,0.251,0.238,0.181,0.265,0.275
NCI-H650,0.324,0.212,0.293,0.212,0.254,0.711,0.737,0.755,0.531,0.69,1.01,–,0.842,0.816,0.649,0.688,–,0.498,0.569,0.505
NCI-H647,0.309,0.165,0.132,0.189,0.24,0.249,0.273,0.237,0.207,0.364,0.957,0.697,0.646,0.776,0.612,0.261,0.299,0.215,0.213,0.256
201T,0.844,0.908,0.81,0.806,0.809,0.466,0.476,0.407,0.421,0.47,0.996,0.913,0.895,0.795,0.865,0.59,0.604,0.528,0.568,0.645
NCI-H838,0.541,0.539,0.554,0.573,0.471,0.767,0.777,0.75,0.831,0.763,0.586,0.629,0.518,0.551,0.56,0.222,0.219,0.247,0.208,0.262
PC-14,0.379,0.576,0.486,0.528,0.421,0.201,0.204,0.171,0.145,0.163,0.986,0.968,0.928,0.756,0.854,0.411,0.191,0.239,0.21,0.342
LK-2,0.243,0.174,0.188,0.21,0.189,0.213,0.197,0.173,0.186,0.208,0.638,–,0.583,0.656,0.679,0.5,–,0.37,0.322,0.386
NCI-H1944,0.373,0.376,0.315,0.44,0.336,0.341,0.437,0.354,0.325,0.306,0.572,0.583,0.608,0.629,0.658,0.315,0.314,0.248,0.31,0.284
HCC-78,0.401,0.372,0.416,0.367,0.307,0.455,0.427,0.361,0.553,0.384,0.496,0.477,0.447,0.51,0.391,0.193,0.19,0.201,0.185,0.16
NCI-H2405,0.696,0.679,0.652,0.606,0.75,0.655,0.652,0.657,0.637,0.662,0.973,0.857,0.763,0.809,0.781,0.265,0.291,0.294,0.294,0.275
EMC-BAC-2,0.278,0.267,0.299,–,0.292,0.846,0.761,0.645,0.653,0.692,0.66,0.564,0.576,0.643,0.521,0.368,0.349,0.298,0.42,0.39
